# Where a name gives a salt, the structure may show the parent alone. Read-outs that look alike come from different tables or passages of the source.
# Key:
# [1] = 12-month stability of the anhydrous form at controlled temperature and humidity (HPLC, water content); type: physicochemical; conditions: 25° C./60% RH
# Experimental: The dihydrochloride salt, anhydrous form of (3S, 4R, 3′R)-6-[4-(4-amino-5-chloro-2-methoxy-benzoylamino)-3-methoxy-piperidin-1-yl]-hexanoic acid 1-azabicyclo[2.2.2]oct-3′-yl ester, was placed in stability chambers with temperature and humidity controlled, for up to 12 months. The temperature was set at 25° C., and the relative humidity was set at 60%. The samples were assayed at time zero, then at 3, 6, 9, and 12 months using an HPLC method. The HPLC conditions were as follows:
# Column: Inertsil C8-3, 250 mm length, 3 mm diameter, 5 um particle size
# Mobile Phase A: 2000 mL water+3 mL formic acid
# Mobile Phase B: 1000 mL methanol+3 mL formic acid
# Detection wavelength: 275 nm
# [2] = Dehydration profile by thermographic analysis (TGA); type: physicochemical; conditions: 25° C. to 250° C.
# Experimental: Thermographic analysis (TGA) curves were generated for the anhydrate and trihydrate using a Perkin Elmer TGA-7. Three to five milligram samples were weighed into aluminum sample pans and run under dry nitrogen at 5° C./minute from 25° C. to 250° C. The data were exported to Excel to enable plotting.
# The two differ in the appearance of the dehydration mass loss observed for the trihydrate and absent as expected from the anhydrate. Dehydration of the trihydrate started immediately upon start of heating and was complete by approximately 50° C. Complete dehydration below 100° C. is consistent with the assignment of the trihydrate as a channel type hydrate.
# [3] = for Resulting Form: slurry, antisolvent Water, ambient, 3 weeks
# Experimental: Noncompetitive Slurry Experiments for Polymorph Screening: Noncompetitive slurry experiments were performed as a supplemental polymorph screening method. When suspensions of a polymorphic material are prepared, any polymorphic form with a lower solubility (more thermodynamically stable form) can nucleate. The nucleated forms can convert all the residual solids to the nucleated form via solvent-mediated phase transition. Suspensions of the isolated Form I were prepared by adding excess solid to several different solvent systems. The suspensions were stirred vigorously at ambient temperature for 3 weeks. The remaining solids were collected by vacuum filtration and analyzed by powder X-ray diffraction to determine if any changes in the crystalline form of the solids occurred.
# [4] = Bulk stability under stressed conditions, one or two weeks; type: physicochemical; conditions: all temperatures and humidities tested, one week or two weeks
# Experimental: Bulk Stability Under Stressed Conditions: About 20-30 mg of the trihydrate form of the dihydrochloride salt was weighed into HPLC vials and stressed at 25° C. and 60% relative humidity (open), 40° C. and 75% relative humidity (open), and 60° C. (closed) for one week and for two weeks.
# [5] = Bulk stability in very high humidity, one week; type: physicochemical
# Experimental: Bulk Stability in Very High Humidity: The trihydrate form of the dihydrochloride salt was stressed at 25° C. and 97% relative humidity (open), 40° C. and 96% relative humidity (open), and 60° C. and 96% relativity humidity (open) for one week.
# [6] = Stability of the trihydrate form stored in bulk in a GMP storage facility; type: physicochemical; conditions: room temperature, RH >30%, up to 11 years
# Experimental: The trihydrate form was evaluated for stability with regard to purity and strength over a time period of up to 11 years, by storing it in a GMP facility under controlled conditions of temperature and relative humidity (temperature=room temperature and relative humidity >30%).
molecule,measurement,setting,value
"(3S, 4R, 3′R)-6-[4-(4-amino-5-chloro-2-methoxy-benzoylamino)-3-methoxy-piperidin-1-yl]-hexanoic acid 1-azabicyclo[2.2.2]oct-3′-yl ester",Purity HPLC (Area %),[1]; 0 months,99.3 Area %
same,Water Content,[1]; 0 months,0.45%
same,Purity HPLC (Area %),[1]; 3 months,99.2 Area %
same,Water Content,[1]; 3 months,6.47%
same,Purity HPLC (Area %),[1]; 6 months,99.3 Area %
same,Water Content,[1]; 6 months,8.47%
same,Purity HPLC (Area %),[1]; 9 months,99.2 Area %
same,Water Content,[1]; 9 months,8.20%
same,Purity HPLC (Area %),[1]; 12 months,99.3 Area %
same,Water Content,[1]; 12 months,8.43%
same,Decrease in strength of the active ingredient,[1]; due to increase in water content over 6 to 12 months,approximately 8%
same,Dehydration mass loss (TGA),[2],absent
"COc1cc(N)c(Cl)cc1C(=O)N[C@@H]1CCN(CCCCCC(=O)O[C@H]2CN3CCC2CC3)C[C@@H]1OC [Form I, (3S, 4R, 3′R)-6-[4-(4-amino-5-chloro-2-methoxy-benzoylamino)-3-methoxy-piperidin-1-yl]-hexanoic acid 1-azabicyclo[2.2.2]oct-3′-yl ester]",Thermodynamic stability among anhydrous forms,[3]; based on the outcome of the slurry experiments,most thermodynamically stable anhydrous form
same,Resulting Form,[3]; solvent 1-Propanol,Form 1
same,Resulting Form,[3]; solvent Acetonitrile,Form 1
same,Resulting Form,[3]; solvent Ethanol,Form 1
same,Resulting Form,[3]; solvent Methanol,Form 1
same,Resulting Form,[3]; solvent Water,Form 1
"COc1cc(N)c(Cl)cc1C(=O)N[C@@H]1CCN(CCCCCC(=O)O[C@H]2CN3CCC2CC3)C[C@@H]1OC [Compound 1, (3S, 4R, 3′R)-6-[4-(4-amino-5-chloro-2-methoxy-benzoylamino)-3-methoxy-piperidin-1-yl]-hexanoic acid 1-azabicyclo[2.2.2] oct-3′-yl ester di-hydrochloride salt]",Physical and chemical stability,[4],both physically and chemically stable
same,Physical and chemical stability,[5]; 25° C. and 97% relative humidity (open),both physically and chemically stable
same,Physical and chemical stability,"[5]; temperature elevated to 40° C. or 60° C., 96% relative humidity (open)",underwent liquescence
same,Stability under GMP storage,[6],stable
